Molecules are shown by their SMILES. Read-outs that look alike come from different tables or passages of the source. Some results are limits rather than exact numbers.

The target in data set [1] is H1N1 neuraminidase (NA), group-1 (Influenza A virus, UniProt P03468). The data set can be described thus: biochemical.
The test system of data set [2] is A/PR/8/34 (H1N1) virus in MDCK cells. Put plainly: microbe, parasite or virus in culture. The settings on record: read-out: EC50 towards influenza virus H1N1. The class given is cell-based, influenza A virus H1N1.
For data set [3], the system named is A/Wisconsin/67/05 (H3N2) virus in MDCK cells. The data set can be described thus: microbe, parasite or virus in culture. The class given is cell-based, influenza A virus H3N2. The settings on record: for EC50: read-out: EC50 towards influenza virus H3N2.
The next data set is described as follows: in vitro. As to conditions: dog.
Setting [4] is: Influenza A virus, H1N1|PR/8, MDCK.

Sequence of H1N1 neuraminidase (NA), group-1 (P03468 36-454 limits assumed): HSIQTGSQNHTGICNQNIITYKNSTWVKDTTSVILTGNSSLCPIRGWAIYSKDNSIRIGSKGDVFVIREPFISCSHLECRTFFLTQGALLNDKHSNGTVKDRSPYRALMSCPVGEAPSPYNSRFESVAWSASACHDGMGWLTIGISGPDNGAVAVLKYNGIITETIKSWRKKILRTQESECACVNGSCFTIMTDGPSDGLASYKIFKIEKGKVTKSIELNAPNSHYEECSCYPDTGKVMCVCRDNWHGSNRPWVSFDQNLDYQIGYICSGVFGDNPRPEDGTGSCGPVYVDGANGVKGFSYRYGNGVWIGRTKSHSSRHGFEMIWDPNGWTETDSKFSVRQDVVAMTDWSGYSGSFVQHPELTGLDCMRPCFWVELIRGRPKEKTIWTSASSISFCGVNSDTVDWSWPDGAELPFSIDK

Broadly, the IC50 is the concentration that gives 50% inhibition. Higher therefore signals weaker potency in that assay. Molecule `CCC(CC)O[C@@H]1C=C(C(=O)O)C[C@H](NCc2ccc(-c3cncnc3)cc2)[C@H]1NC(C)=O` [3c, (3R,4R,5S)-4-acetamido-3-(pentan-3-yloxy)-5-((4-(pyrimidin-5-yl)benzyl)amino)cyclohex-1-ene-1-carboxylic acid] registered a concentration for half-maximal inhibition (IC50) in data set [1] of 12.1 ± 1.1 µM.
`CCC(CC)O[C@@H]1C=C(C(=O)O)C[C@H](NCc2ccc(-c3cnc(Cl)nc3)cc2)[C@H]1NC(C)=O` [3d, (3R,4R,5S)-4-acetamido-5-((4–(2-chloropyrimidin-5-yl)benzyl)amino)-3-(pentan-3-yloxy)cyclohex-1-ene-1-carboxylic acid] yielded a concentration for half-maximal inhibition (IC50) in data set [1] of 4.34 ± 0.36 µM.
In the case of `CCC(CC)O[C@@H]1C=C(C(=O)O)C[C@H](NCc2ccc(-c3c(C)nc(N)nc3C)cc2)[C@H]1NC(C)=O` [3e, (3R,4R,5S)-4-acetamido-5-((4–(2-amino-4,6-dimethylpyrimidin-5-yl)benzyl)amino)-3-(pentan-3-yloxy)cyclohex-1-ene-1-carboxylic acid], in data set [1], the IC50 was 8.06 ± 0.48 µM.
For the molecule `CCC(CC)O[C@@H]1C=C(C(=O)O)C[C@H](NCc2ccc(N3CCC4(CC3)CN(C(=O)OC(C)(C)C)C4)cc2)[C@H]1NC(C)=O` [6a, (3R,4R,5S)-4-acetamido-5-((4–(2-(tert-butoxycarbonyl)-2,7-diazaspiro[3.5]nonan-7-yl)benzyl)amino)-3-(pentan-3-yloxy)cyclohex-1-ene-1-carboxylic acid], inhibition in data set [1] was half-maximal at 3.94 ± 0.11 µM (IC50).
As to `CCC(CC)O[C@@H]1C=C(C(=O)O)C[C@H](NCc2ccc(N3CCC4(CCN(C(=O)OC(C)(C)C)C4)C3)cc2)[C@H]1NC(C)=O` (stereo partly drawn) [6b, (3R,4R,5S)-4-acetamido-5-((4–(7-(tert-butoxycarbonyl)-2,7-diazaspiro[4.4]nonan-2-yl)benzyl)amino)-3-(pentan-3-yloxy)cyclohex-1-ene-1-carboxylic acid], in data set [1], the IC50 was determined as 0.4 ± 0.033 µM.
On the same count and under the same terms, the figure for `CCC(CC)O[C@@H]1C=C(C(=O)O)C[C@H](NCc2ccc(N3CC4(CCN(C(=O)OC(C)(C)C)CC4)C3)cc2)[C@H]1NC(C)=O` [6c, (3R,4R,5S)-4-acetamido-5-((4–(7-(tert-butoxycarbonyl)-2,7-diazaspiro[3.5]nonan-2-yl)benzyl)amino)-3-(pentan-3-yloxy)cyclohex-1-ene-1-carboxylic acid] is 1.4 ± 0.073 µM.
The molecule `CCC(CC)O[C@@H]1C=C(C(=O)O)C[C@H](NCc2ccc(N3CC4(CN(C(=O)OC(C)(C)C)C4)C3)cc2)[C@H]1NC(C)=O` [6d, (3R,4R,5S)-4-acetamido-5-((4–(6-(tert-butoxycarbonyl)-2,6-diazaspiro[3.3]heptan-2-yl)benzyl)amino)-3-(pentan-3-yloxy)cyclohex-1-ene-1-carboxylic acid] registered a half-inhibitory concentration (IC50) in data set [1] of 3.1 ± 0.24 µM.
For `CCC(CC)O[C@@H]1C=C(C(=O)O)C[C@H](NCc2ccc(N3CCC4(CC3)OCCO4)cc2)[C@H]1NC(C)=O` [6e, (3R,4R,5S)-5-((4–(1,4-dioxa-8-azaspiro[4.5]decan-8-yl)benzyl)amino)-4-acetamido-3-(pentan-3-yloxy)cyclohex-1-ene-1-carboxylic acid], the IC50 in data set [1] was determined as 1.99 ± 0.19 µM.
Regarding `CCC(CC)O[C@@H]1C=C(C(=O)O)C[C@H](NCc2ccc(N3CC4C(C3)C4(C)C)cc2)[C@H]1NC(C)=O` (stereo partly drawn) [6f, (3R,4R,5S)-4-acetamido-5-((4–(6,6-dimethyl-3-azabicyclo[3.1.0]hexan-3-yl)benzyl)amino)-3-(pentan-3-yloxy)cyclohex-1-ene-1-carboxylic acid], in data set [1], the IC50 turned out to be 0.43 ± 0.036 µM.
The term EC50 denotes the midpoint of the concentration-response curve. In the case of `CCC(CC)O[C@@H]1C=C(C(=O)O)C[C@H](NCc2ccc(N3CC4CC4C3)cc2)[C@H]1NC(C)=O` (stereo partly drawn) [6g, (3R,4R,5S)-5-((4–(3-azabicyclo[3.1.0]hexan-3-yl)benzyl)amino)-4-acetamido-3-(pentan-3-yloxy)cyclohex-1-ene-1-carboxylic acid], in data set [1], the IC50 came to 0.19 ± 0.0096 µM. Moreover, the EC50 was 0.03 ± 0.03 µM in data set [2] (setting [4]) and 0.16 ± 0.08 µM in data set [3] (Influenza A virus, H3N2, MDCK). Besides, in data set [3], the “fold activity enhancement over zanamivir (ZA) against H3N2 virus” value is roughly 2 fold. Moreover, the CC50 in “in vitro” is greater than 250 µM.
Regarding `CCC(CC)O[C@@H]1C=C(C(=O)O)C[C@H](NCc2ccc(N3CC4CCCC4C3)cc2)[C@H]1NC(C)=O` (stereo partly drawn) [6h, (3R,4R,5S)-4-acetamido-5-((4-(hexahydrocyclopenta[c]pyrrol-2(1H)-yl)benzyl)amino)-3-(pentan-3-yloxy)cyclohex-1-ene-1-carboxylic acid], in data set [1], inhibition was half-maximal at 0.3 ± 0.0016 µM (IC50).
In turn, `CCC(CC)O[C@@H]1C=C(C(=O)O)C[C@H](NCc2ccc(N3CC4CCCCC4C3)cc2)[C@H]1NC(C)=O` (stereo partly drawn) [6i, (3R,4R,5S)-4-acetamido-5-((4-(octahydro-2H-isoindol-2-yl)benzyl)amino)-3-(pentan-3-yloxy)cyclohex-1-ene-1-carboxylic acid] yielded an IC50 in data set [1] of 0.15 ± 0.031 µM. The EC50 was 0.03 ± 0.03 µM in data set [2] (setting [4]) and 0.32 ± 0.08 µM in data set [3] (Influenza A virus, H3N2, MDCK). In “in vitro”, this molecule came in with a CC50 greater than 250 µM.
`CCC(CC)O[C@@H]1C=C(C(=O)O)C[C@H](NCc2ccc(N3CCC[C@H]3C)cc2)[C@H]1NC(C)=O` [6k, (3R,4R,5S)-4-acetamido-5-((4-((R)-2-methylpyrrolidin-1-yl)benzyl)amino)-3-(pentan-3-yloxy)cyclohex-1-ene-1-carboxylic acid] showed an IC50 in data set [1] of 0.084 ± 0.0072 µM. Further, the EC50 in data set [2] (setting [4]) was found to be 0.02 ± 0.01 µM. In data set [3], the “fold activity enhancement over OSC against H3N2 virus” value is reported as roughly 3 fold and the “fold activity enhancement over zanamivir (ZA) against H3N2 virus” value is recorded as roughly 2 fold. Further, the EC50 in data set [3] (Influenza A virus, H3N2, MDCK) came to 0.12 ± 0.03 µM. In “in vitro”, this molecule had a CC50 greater than 250 µM.
`CCC(CC)O[C@@H]1C=C(C(=O)O)C[C@H](NCc2ccc(N3CCC3)cc2)[C@H]1NC(C)=O` [6n, (3R,4R,5S)-4-acetamido-5-((4-(azetidin-1-yl)benzyl)amino)-3-(pentan-3-yloxy)cyclohex-1-ene-1-carboxylic acid] showed a 50% inhibitory concentration (IC50) in data set [1] of 0.14 ± 0.01 µM.
In turn, `CCC(CC)O[C@@H]1C=C(C(=O)O)C[C@H](NCc2ccc(N(C)CC)cc2)[C@H]1NC(C)=O` [6o, (3R,4R,5S)-4-acetamido-5-((4-(ethyl(methyl)amino)benzyl)amino)-3-(pentan-3-yloxy)cyclohex-1-ene-1-carboxylic acid] displayed an IC50 in data set [1] of 0.36 ± 0.018 µM.
`CCC(CC)O[C@@H]1C=C(C(=O)O)C[C@H](N)[C@H]1NC(C)=O` [OSC, oseltamivir carboxylate, reference compound]: the EC50 in data set [2] was determined as […]; in data set [3], 0.36 ± 0.16 µM. Besides, in “in vitro”, the CC50 is greater than 250 µM.
For `CC(=O)N[C@H]1[C@H]([C@H](O)[C@H](O)CO)OC(C(=O)O)=C[C@@H]1N=C(N)N` [ZA, zanamivir, reference compound], the half-maximal effective concentration (EC50) in data set [2] (setting [4]) came to […]; in data set [3] (Influenza A virus, H3N2, MDCK), 0.27 ± 0.03 µM. In the data set “in vitro”, this molecule gave a CC50 greater than 250 µM.

The values are drawn from article PMC10653643 (Journal of Enzyme Inhibition and Medicinal Chemistry, 2023).
